± gives the expanded uncertainty stated by the source.
Settings: 298.15 K; 101.33 kPa; Liquid; Vibrating tube method

SMILES	mass density
CCCC[N+]1(C)CCCC1.N#CC(=C=[N-])C#N [1-butyl-1-methylpyrrolidinium tricyanomethanide]	1006.75 ± 1.3 kg/m3
CCCC[N+]1(C)CCOCC1.N#C[C-](C#N)C#N [4-butyl-4-methylmorpholinium tricyanomethanide]	1067.06 ± 1.3 kg/m3
c1ccccc1 [benzene]	873.53 ± 1 kg/m3
Cc1ccccc1 [toluene]	863.67 ± 1 kg/m3

The remaining lines, values ahead:

mass density	SMILES
826.38 ± 1 kg/m3	CCCCCCCCCCO [decan-1-ol]
862.97 ± 1 kg/m3	CCc1ccccc1 [ethylbenzene]
679.55 ± 1 kg/m3	CCCCCCC [heptane]
814.94 ± 1 kg/m3	CCCCCCO [hexan-1-ol]
823.27 ± 1 kg/m3	CCCCCCCCO [octan-1-ol]
1058.48 ± 1 kg/m3	c1ccsc1 [thiophene]

— the NIST ThermoML archive (doi:10.1016/j.fluid.2014.12.003)
